From patent publication US8058344B2, “Glycodendrimers having biological activity” (Imperial Innovations Ltd, priority 2002, dated 2011)

Experiments:
[1] = test system: human umbilical vein endothelial cells; assay: Endothelial microtubule formation assay on Matrigel; assay type: cell-based; conditions: 100 μg/ml; 18 h; scale 0-4
Procedure: The endothelial microtubule formation assay was performed by isolating human umbilical vein endothelial cells from umbilical cords within 6 h of delivery by caesarean section. The embilical vein was cannulated and 0.1% collagenase in phosphate buffered saline was introduced and incubated for 20 minutes. The endothelial cells liberated by the collagenase were obtained by washing the umbilical vein with Medium 199. The cells were washed three times with Medium 199 and then cultured in tissue culture flasks coated with fibronectin. Growth media consisted of Medium 199 with 20% foetal bovine serum, 30 μg/ml endothelial cell growth supplement, 10 IU/ml heparin, 100 IU/ml penicillin, 100 μg/1 ml streptomycin and 2 mM L-glutamine. Human umbilical vein endothelial cells were passaged at confluence after treatment with trypsin-EDTA. All cells were used at passages to 6.
Aliquots of Matrigel were dispensed into 35 mm diameter tissue culture dishes on ice and then incubated at 37° C. for 10 min to allow the gel to set. […] At various time points from 8-24 hours, the plates were examined and scored using a published scheme from 0-4, where 0=all adherent cells remain single, and 4=all adherent cells involved in tubular structures. New vessel formation was quantified blind by three different observers at 18 h. […]
Endothelial microtubule formation by HUVECs on Matrigel (×40 magnification). A visual analogue scale was used to determine the extent of tube formation and scored on a scale from 0 (all cells remain single) to 4 (all cells involved in tubular structures) as previously described (Bauer J, Margolis M, Schreiner C, Edgell C-J, Azizkhan J, Lazarowski E, & Juliano R L. (1992) In vitro model of angiogenesis using a human endothelium derived permanent cell line: contributions of induced gene expression, G-proteins and integrins. J. Cellular Physiology 153: 437-449; Liaw, L & Schwartz S M. (1993) Microtubule disruption stimulates DNA synthesis in bovine endothelial cells and potentiates cellular response to basic fibroblast growth factor. […]

[2] = test system: human monocytic cell line (U937); assay: Toxicity in cell lines, MTT assay; assay type: cell-based; conditions: U-937, 67 h, ± SEM (n = 16)
Procedure: (§1) The compounds synthesised were evaluated for their toxicity in the following cell lines:—the human T-cell line (Sup-T1), a human T-cell line transformed with HTLV-1 (C8166), the human monocytic cell line (U937), the brain cell line transfected with human CD4 and the human chemokine receptor CCR5 (U87-CD4-CCR5), and the murine melanoma cell line (B16P10).
(§2) Dendrimers, glucosamine, glucosamine 6-sulfate and dendrimer conjugates were incubated with each cell line. […] The conjugates or controls were incubated for 67 h with the cells at concentrations ranging from […]. An MTT assay was then used to determine cell viability and the results were expressed as a percentage of that for cells grown in the absence of any compound.

[3] = test system: human T-cell line transformed with HTLV-1 (C8166); assay: Toxicity in cell lines, MTT assay; assay type: cell-based; conditions: 67 h, ± SEM (n = 16)
Procedure: as §1, §2

[4] = test system: brain cell line transfected with human CD4 and the human chemokine receptor CCR5 (U87-CD4-CCR5); assay: Toxicity in cell lines, MTT assay; assay type: cell-based; conditions: 67 h, ± SEM (n = 16)
Procedure: as §1, §2

[5] = test system: human T-cell line (Sup-T1); assay: Toxicity in cell lines, MTT assay; assay type: cell-based; conditions: 67 h, ± SEM (n = 16)
Procedure: as §1, §2

[6] = test system: murine melanoma cell line (B16F10); assay: Toxicity in cell lines, MTT assay; assay type: cell-based; conditions: Mus musculus, B16-F10, 67 h, ± SEM (n = 16)
Procedure: as §1, §2

[7] = test system: Sup-T1, C8166, U937, U87-CD4-CCR5 and B16F10 cells; assay: Toxicity in cell lines, MTT assay, stated over all cell lines; assay type: cell-based, human; murine; conditions: concentrations up to 1,000 μg/ml
Procedure: as §1, §2

[8] = test system: freshly isolated human PBMN cells and human MDM; assay: Toxicity against primary human cells in vitro, MTT assay; assay type: cell-based; conditions: up to the maximum concentration of 1,000 μg/ml
Procedure: The dendrimers and the dendrimer conjugates were incubated with freshly isolated, human peripheral blood mononuclear (PBMN) cells and with freshly isolated human monocyte-derived-macrophages QDM).
Human PBMN cells and human MDMs were separated from buffy coat residues within 24 h of collection by density gradient centrifugation. […] The monocytes were allowed to differentiate to MDMs by a further 3 days of adherence. The compounds were then added to PBMN cells or to MDMs (1×10^6 cells/ml) and incubated for 67 h. Cell viability was assessed using the MTT assay at 72 h.

| Compound | Tube formation score (n = 4) [1] | IC50 [2] [µg/mL] | IC50 [3] [µg/mL] | IC50 [4] [µg/mL] | IC50 [5] [µg/mL] | IC50 [6] [µg/mL] | toxicity [7] | toxicity to PBMN cells or to MDMs [8] |
| --- | --- | --- | --- | --- | --- | --- | --- | --- |
| N[C@H]1C(O)O[C@H](COS(=O)(=O)O)[C@@H](O)[C@@H]1OS(=O)(=O)O (stereo partly shown) [glucosamine 3,6-disulfate] | 4 | – | – | – | – | – | – | – |
| N[C@H]1C(O)O[C@H](COS(=O)(=O)O)[C@@H](O)[C@@H]1O (stereo partly shown) [glucosamine 6-sulfate] | 4 | > 1000 | > 1000 | > 1000 | > 1000 | > 1000 | no toxicity | not toxic |
| N[C@H]1C(O)O[C@H](CO)[C@@H](O)[C@@H]1O (stereo partly shown) [glucosamine] | 4 | > 1000 | > 1000 | > 1000 | > 1000 | > 1000 | no toxicity | – |
